Data as given in patent US20260007599A1, “TICAGRELOR IV FORMULATIONS FOR USE IN THE TREATMENT OF GRAM-POSITIVE BACTEREMIA” (Hyloris Developments SA, priority 2023, published 2026).

Columns and labels:
[1] = Physical stability and diluent tests of ticagrelor 5 mg/ml batches with varying HPβCD; type: physicochemical; settings: for Appearance in 5% dextrose / Appearance in NaCl 0.9%: diluted to ticagrelor 0.1 mg/ml; for Appearance, undiluted: ticagrelor 5 mg/ml
Procedure: 5 mg/ml ticagrelor-cyclodextrin solutions with varying amounts of HPβCD were diluted with normal saline, 5% dextrose solution or Ringer's lactate solution. The stability was screened. The ticagrelor concentration when diluted into dextrose or saline was 0.1 mg/ml.

[2] = Storage stability of ticagrelor 6 mg/ml in HPβCD 40% w/w, phosphate buffer pH 7.5, 40° C./75% RH; type: physicochemical
Procedure: A Gradient HPLC method was used to analyze impurities in formulations using a YMC-Pack Pro C18 column (100×4.6 mm, S-3 μm 12 nm). Good separation was obtained for all the impurities. Following the experiment described in example 2, a storage stability study at pH 7.5 was conducted First HPβCD was dissolved in a phosphate buffer solution of pH 7.5 prepared separately in water. […] The solution was filtered through a 0.22 micrometer filter and filled in USP Type I amber colored glass vials. The vials were stoppered and stored. All precautions were taken during manufacturing, such as N2 purging and avoiding direct exposure to light.

[3] = pH, osmolality, assay and impurities of undiluted batches; impact of buffer strength; type: physicochemical
Procedure: From the results obtained in Example 4 it follows that the concentration of excipients may be such that the resulting ticagrelor solution is hypertonic. The osmolality and pH of several batches was checked. […] In addition, a screening was conducted on the impact of buffer strength on pH and osmolality.

[4] = Storage stability of Example 14 aqueous ticagrelor solutions; type: physicochemical; settings: 5-15 mg/ml ticagrelor, 20-40% w/w HPβCD; 40° C. and 75% Relative Humidity
Procedure: Aqueous ticagrelor solutions for intravenous administration were prepared with the following composition: • 5-15 mg/ml Ticagrelor • 20-40% w/w HPβCD • Q·S to 1 ml Acetate or Phosphate Buffer pH 4.5 to 6.5 • pH solution: 6-8 • Osmolality solution: 350-900 mOsm/kg
Packaged in a glass vial, containing 5-15 ml aqueous ticagrelor solution.
Storage stability: at least 3 months at 40° C. and 75% Relative Humidity

[5] = test system: Methicillin resistant Staphylococcus aureus (MRSA); settings: ex-vivo; cited from earlier work
[6] = HPβCD 22.5% w/w, 19 mM phosphate buffer pH 7.5
[7] = HPβCD 25.0% w/w, 19 mM phosphate buffer pH 7.5
[8] = HPβCD 27.5% w/w, 19 mM phosphate buffer pH 7.5
[9] = HPβCD 30.0% w/w, 19 mM phosphate buffer pH 7.5
[10] = HPβCD 32.5% w/w, 19 mM phosphate buffer pH 7.5
[11] = phosphate buffer pH 7.5 strength 0.19 mM
[12] = phosphate buffer pH 7.5 strength 5 mM
[13] = phosphate buffer pH 7.5 strength 10 mM
[14] = phosphate buffer pH 7.5 strength 19 mM

## CCCSc1nc(N[C@@H]2C[C@H]2c2ccc(F)c(F)c2)c2nnn([C@@H]3C[C@H](OCCO)[C@@H](O)[C@H]3O)c2n1 [ticagrelor, (1S,2S,3R,5S)-3-{7-[(1R,2S)-2-(3,4-difluorophenyl)cyclopropylamino]5-(propylthio)-3H-(1,2,3)triazolo (4,5-D)pyrimidin-3-yl}-5-(2 hydroxyethoxy) cyclopentane-1,2-diol]
[1]; HPβCD 20-40% w/w, without the use of heat
  ticagrelor concentration that could be dissolved: 5 to 15 mg/mL
[1]; HPβCD 22.5% w/w
  Appearance in 5% dextrose: Clear solution
  Appearance in NaCl 0.9%: Turbid
[1]; HPβCD 25.0% w/w
  Appearance in 5% dextrose: Clear solution
  Appearance in NaCl 0.9%: Turbid
[1]; HPβCD 27.5% w/w
  Appearance in 5% dextrose: Clear solution
  Appearance in NaCl 0.9%: Turbid
[1]; HPβCD 30.0% w/w
  Appearance in 5% dextrose: Clear solution
  Appearance in NaCl 0.9%: Turbid
  Appearance, undiluted: Clear solution
[1]; HPβCD 32.5% w/w
  Appearance in 5% dextrose: Clear solution
  Appearance in NaCl 0.9%: Clear solution
  Appearance, undiluted: Clear solution
[1]; in the refrigerator, HPβCD concentration as low as 22.5% w/w
  stability of undiluted concentrate: remained stable
[2]; T = 0, 40° C./75% RH
  Acetal impurity: 0.05%
  Amine impurity: 0.04%
  Assay ticagrelor: 104.27%
  Regiomer impurity: 0.00%
  Sum impurities >0.05: 0.11%
  Total impurities: 0.31%
  Triol impurity: 0.04%
[2]; T = 4 weeks, 40° C./75% RH
  Acetal impurity: 0.05%
  Amine impurity: 0.05%
  Assay ticagrelor: 104.47%
  Regiomer impurity: 0.01%
  Sum impurities >0.05: 0.14%
  Total impurities: 0.32%
  Triol impurity: 0.05%
[2]; T = 8 weeks, 40° C./75% RH
  Acetal impurity: 0.05%
  Amine impurity: 0.05%
  Assay ticagrelor: 102.59%
  Regiomer impurity: 0.04%
  Sum impurities >0.05: 0.15%
  Total impurities: 0.29%
  Triol impurity: 0.05%
[2]; T = 12 weeks, 40° C./75% RH
  Acetal impurity: 0.05%
  Amine impurity: 0.05%
  Assay ticagrelor: 102.31%
  Regiomer impurity: 0.08%
  Sum impurities >0.05: 0.23%
  Total impurities: 0.41%
  Triol impurity: 0.04%
[2]; T = 24 Weeks, 40° C./75% RH
  Acetal impurity: 0.05%
  Amine impurity: 0.07%
  Assay ticagrelor: 104.39%
  Regiomer impurity: 0.16%
  Sum impurities >0.05: 0.33%
  Total impurities: 0.35%
  Triol impurity: 0.05%
[2]; accelerated storage conditions of 40° C. and 75% Relative Humidity
  storage stability (conclusion): good storage stability
[3]; [6]
  Assay: 98.15%
  Osmolality undiluted: 392 mOsm/kg
  Total impurities: 0.39%
  pH undiluted: 7.67
[3]; [7]
  Assay: 103.23%
  Osmolality undiluted: 493 mOsm/kg
  Total impurities: 0.41%
  pH undiluted: 7.69
[3]; [8]
  Assay: 104.27%
  Osmolality undiluted: 549 mOsm/kg
  Total impurities: 0.42%
  pH undiluted: 7.69
[3]; [9]
  Assay: 107.64%
  Osmolality undiluted: 638 mOsm/kg
  Total impurities: 0.44%
  pH undiluted: 7.74
[3]; [10]
  Assay: 99.26%
  Osmolality undiluted: 813 mOsm/kg
  Total impurities: 0.41%
  pH undiluted: 7.68
[3]; [11]
  Assay: 102.23%
  Osmolality sample: 809 mOsm/kg
  Total impurities: 0.42%
  pH sample: 7.18
[3]; [12]
  Assay: 100.49%
  Osmolality sample: 703 mOsm/kg
  Total impurities: 0.40%
  pH sample: 7.66
[3]; [13]
  Assay: 102.98%
  Osmolality sample: 724 mOsm/kg
  Total impurities: 0.42%
  pH sample: 7.69
[3]; [14]
  Assay: 102.58%
  Osmolality sample: 758 mOsm/kg
  Total impurities: 0.42%
  pH sample: 7.70
[4]
  Storage stability: at least 3 months
[5]
  minimal bactericidal concentration: 20 microgram/ml
